Data published in PubChem BioAssay AID1963841 (Molecular Pharmacology Branch, DTP, NCI, 2024).

Tested on: 439559-082-T-J2-PDC spheroid viability
Assay: Anticancer human tumor 439559-082-T-J2-PDC patient-derived colon adenocarcinoma cell line growth inhibition [POLQ]
Conditions: spheroids with HUVEC and MSC; for IC50: curve of first compound; for viability, T/C: stronger effect = lower value
How it was run: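 Patient-derived tumour cells were co-cultured with HUVEC and mesenchymal stem cells as multicellular spheroids at 37 °C. They were treated with POLQ inhibitors (novobiocin, ART-558, RP6685) alone or combined with other agents. Top concentrations were at or near clinical Cmax (otherwise 10 microM; SN-38 at 1 microM), decreasing in half-log steps.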

[1] = second compound 0.0316 µM, first compound 0.0316 µM
[2] = second compound 0.0316 µM, first compound 0.1 µM
[3] = second compound 0.0316 µM, first compound 0.316 µM
[4] = second compound 0.0316 µM, first compound 1 µM
[5] = second compound 0.0316 µM, first compound 3.16 µM
[6] = second compound 0.0316 µM, first compound 10 µM
[7] = second compound 0.1 µM, first compound 0.0316 µM
[8] = second compound 0.1 µM, first compound 0.1 µM
[9] = second compound 0.1 µM, first compound 0.316 µM
[10] = second compound 0.1 µM, first compound 1 µM
[11] = second compound 0.1 µM, first compound 3.16 µM
[12] = second compound 0.1 µM, first compound 10 µM
[13] = second compound 0.316 µM, first compound 0.0316 µM
[14] = second compound 0.316 µM, first compound 0.1 µM
[15] = second compound 0.316 µM, first compound 0.316 µM
[16] = second compound 0.316 µM, first compound 1 µM
[17] = second compound 0.316 µM, first compound 3.16 µM
[18] = second compound 0.316 µM, first compound 10 µM
[19] = second compound 1 µM, first compound 0.0316 µM
[20] = second compound 1 µM, first compound 0.1 µM
[21] = second compound 1 µM, first compound 0.316 µM
[22] = second compound 1 µM, first compound 1 µM
[23] = second compound 1 µM, first compound 3.16 µM
[24] = second compound 1 µM, first compound 10 µM
[25] = second compound 3.16 µM, first compound 0.0316 µM
[26] = second compound 3.16 µM, first compound 0.1 µM
[27] = second compound 3.16 µM, first compound 0.316 µM
[28] = second compound 3.16 µM, first compound 1 µM
[29] = second compound 3.16 µM, first compound 3.16 µM
[30] = second compound 3.16 µM, first compound 10 µM
[31] = second compound 10 µM, first compound 0.0316 µM
[32] = second compound 10 µM, first compound 0.1 µM
[33] = second compound 10 µM, first compound 0.316 µM
[34] = second compound 10 µM, first compound 1 µM
[35] = second compound 10 µM, first compound 3.16 µM
[36] = second compound 10 µM, first compound 10 µM
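Further: spheroids exposed to compounds for seven days before readout.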
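Wherever viability, T/C is given: 100% = DMSO vehicle control viability.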

## C=CC(=O)N1CCN(c2nc(=O)n(-c3c(C)ccnc3C(C)C)c3nc(-c4c(O)cccc4F)c(F)cc23)C(C)C1 (stereo unspecified) + Cc1cccc(N(C)C(=O)C2C(O)CCN2c2nc(C)cc(C(F)(F)F)c2C#N)c1
Second compound 0.0316 µM
  IC50: > 10 µM
Second compound 0.1 µM
  IC50: > 10 µM
Second compound 0.316 µM
  IC50: > 10 µM
Second compound 1 µM
  IC50: > 10 µM
Second compound 3.16 µM
  IC50: > 10 µM
Second compound 10 µM
  IC50: > 10 µM
[1]
  viability, T/C: 101%
[2]
  viability, T/C: 93.8%
[3]
  viability, T/C: 95.7%
[4]
  viability, T/C: 108%
[5]
  viability, T/C: 103%
[6]
  viability, T/C: 94.9%
[7]
  viability, T/C: 101%
[8]
  viability, T/C: 103%
[9]
  viability, T/C: 97%
[10]
  viability, T/C: 99.4%
[11]
  viability, T/C: 107%
[12]
  viability, T/C: 100%
[13]
  viability, T/C: 92.7%
[14]
  viability, T/C: 96.9%
[15]
  viability, T/C: 98%
[16]
  viability, T/C: 94.9%
[17]
  viability, T/C: 96%
[18]
  viability, T/C: 96.5%
[19]
  viability, T/C: 107%
[20]
  viability, T/C: 97.8%
[21]
  viability, T/C: 96.5%
[22]
  viability, T/C: 96.5%
[23]
  viability, T/C: 96%
[24]
  viability, T/C: 98%
[25]
  viability, T/C: 101%
[26]
  viability, T/C: 96.6%
[27]
  viability, T/C: 92.4%
[28]
  viability, T/C: 95.6%
[29]
  viability, T/C: 96.9%
[30]
  viability, T/C: 101%
[31]
  viability, T/C: 98.2%
[32]
  viability, T/C: 93.8%
[33]
  viability, T/C: 88%
[34]
  viability, T/C: 83.6%
[35]
  viability, T/C: 97.1%
[36]
  viability, T/C: 90.2%

## O=C(c1cc(Cc2n[nH]c(=O)c3ccccc23)ccc1F)N1CCN(C(=O)C2CC2)CC1 + COC1C(OC(N)=O)C(O)C(Oc2ccc3c(O)c(NC(=O)c4ccc(O)c(CC=C(C)C)c4)c(=O)oc3c2C)OC1(C)C
Second compound 0.0316 µM
  IC50: > 10 µM
Second compound 0.1 µM
  IC50: > 10 µM
Second compound 0.316 µM
  IC50: > 10 µM
Second compound 1 µM
  IC50: > 10 µM
Second compound 3.16 µM
  IC50: > 10 µM
Second compound 10 µM
  IC50: > 10 µM
[1]
  viability, T/C: 101%
[2]
  viability, T/C: 106%
[3]
  viability, T/C: 94.4%
[4]
  viability, T/C: 100%
[5]
  viability, T/C: 106%
[6]
  viability, T/C: 97.4%
[7]
  viability, T/C: 105%
[8]
  viability, T/C: 102%
[9]
  viability, T/C: 100%
[10]
  viability, T/C: 96.4%
[11]
  viability, T/C: 105%
[12]
  viability, T/C: 98.1%
[13]
  viability, T/C: 102%
[14]
  viability, T/C: 104%
[15]
  viability, T/C: 98.9%
[16]
  viability, T/C: 92.9%
[17]
  viability, T/C: 107%
[18]
  viability, T/C: 97.8%
[19]
  viability, T/C: 108%
[20]
  viability, T/C: 102%
[21]
  viability, T/C: 100%
[22]
  viability, T/C: 106%
[23]
  viability, T/C: 107%
[24]
  viability, T/C: 100%
[25]
  viability, T/C: 107%
[26]
  viability, T/C: 109%
[27]
  viability, T/C: 94.9%
[28]
  viability, T/C: 97%
[29]
  viability, T/C: 105%
[30]
  viability, T/C: 92.1%
[31]
  viability, T/C: 97.7%
[32]
  viability, T/C: 99.3%
[33]
  viability, T/C: 102%
[34]
  viability, T/C: 102%
[35]
  viability, T/C: 116%
[36]
  viability, T/C: 91.4%

## C=CCn1c(=O)c2cnc(Nc3ccc(N4CCN(C)CC4)cc3)nc2n1-c1cccc(C(C)(C)O)n1 + Nc1ccc(C#CCN(C(=O)Cc2ncc(C(F)(F)F)cc2C(F)(F)F)c2ccc(F)cc2)nn1
Second compound 0.0316 µM
  IC50: > 1 µM
Second compound 0.1 µM
  IC50: > 1 µM
Second compound 0.316 µM
  IC50: > 1 µM
Second compound 1 µM
  IC50: > 1 µM
Second compound 3.16 µM
  IC50: > 1 µM
Second compound 10 µM
  IC50: > 1 µM
Second compound 0.0316 µM, first compound 0.00316 µM
  viability, T/C: 111%
Second compound 0.0316 µM, first compound 0.01 µM
  viability, T/C: 109%
[1]
  viability, T/C: 109%
[2]
  viability, T/C: 105%
[3]
  viability, T/C: 97.5%
[4]
  viability, T/C: 84.7%
Second compound 0.1 µM, first compound 0.00316 µM
  viability, T/C: 108%
Second compound 0.1 µM, first compound 0.01 µM
  viability, T/C: 94.4%
[7]
  viability, T/C: 100%
[8]
  viability, T/C: 95.5%
[9]
  viability, T/C: 97.9%
[10]
  viability, T/C: 78.6%
Second compound 0.316 µM, first compound 0.00316 µM
  viability, T/C: 108%
Second compound 0.316 µM, first compound 0.01 µM
  viability, T/C: 115%
[13]
  viability, T/C: 97.3%
[14]
  viability, T/C: 99.1%
[15]
  viability, T/C: 97.5%
[16]
  viability, T/C: 84%
Second compound 1 µM, first compound 0.00316 µM
  viability, T/C: 105%
Second compound 1 µM, first compound 0.01 µM
  viability, T/C: 102%
[19]
  viability, T/C: 98.4%
[20]
  viability, T/C: 101%
[21]
  viability, T/C: 103%
[22]
  viability, T/C: 78.7%
Second compound 3.16 µM, first compound 0.00316 µM
  viability, T/C: 99.6%
Second compound 3.16 µM, first compound 0.01 µM
  viability, T/C: 107%
[25]
  viability, T/C: 98.8%
[26]
  viability, T/C: 99.4%
[27]
  viability, T/C: 89.5%
[28]
  viability, T/C: 79.3%
Second compound 10 µM, first compound 0.00316 µM
  viability, T/C: 105%
Second compound 10 µM, first compound 0.01 µM
  viability, T/C: 109%
[31]
  viability, T/C: 103%
[32]
  viability, T/C: 105%
[33]
  viability, T/C: 99.9%
[34]
  viability, T/C: 71.2%
